Experimental data taken from patent publication US7781421B2, “Neuroactive 13, 24-cyclo-18, 21-dinorcholanes and structurally related pentacyclic steriods” (Washington University, priority 2003, dated 2010).
Like-named read-outs stand apart in the source and are kept apart here.

Columns and labels:
[1] = target: T1, rat α1β2γ2 GABAA Receptor (Rattus norvegicus, UniProt P18508+P62813+P63138, INS375LLRMFSFK); assay: Xenopus oocyte two-electrode voltage-clamp electrophysiology; format: cell-based; conditions: for Oocyte electrophysiology, ratio of currents in presence/absence of compound, 0.1 μM: 0.1 μM compound co-applied with 2 μM GABA; for Oocyte electrophysiology, ratio of currents in presence/absence of compound, 0.1 μM / Oocyte electrophysiology, ratio of currents in presence/absence of compound, 1 μM / Oocyte electrophysiology, ratio of currents in presence/absence of compound, 10 μM: −70 mV; for Oocyte electrophysiology, ratio of currents in presence/absence of compound, 1 μM: 1 μM compound co-applied with 2 μM GABA; for Oocyte electrophysiology, ratio of currents in presence/absence of compound, 10 μM: 10 μM compound co-applied with 2 μM GABA; for Gating (10 μM), ratio of compound only current/2 μM GABA current: direct current gated by 10 μM compound in the absence of GABA
T1 construct: from linearized pBluescript vectors containing receptor coding regions; expressed in transfected cells; host or cells: Xenopus laevis oocytes injected with in vitro transcribed capped mRNA
T1 sequence (P62813 28-455, stated change not applied): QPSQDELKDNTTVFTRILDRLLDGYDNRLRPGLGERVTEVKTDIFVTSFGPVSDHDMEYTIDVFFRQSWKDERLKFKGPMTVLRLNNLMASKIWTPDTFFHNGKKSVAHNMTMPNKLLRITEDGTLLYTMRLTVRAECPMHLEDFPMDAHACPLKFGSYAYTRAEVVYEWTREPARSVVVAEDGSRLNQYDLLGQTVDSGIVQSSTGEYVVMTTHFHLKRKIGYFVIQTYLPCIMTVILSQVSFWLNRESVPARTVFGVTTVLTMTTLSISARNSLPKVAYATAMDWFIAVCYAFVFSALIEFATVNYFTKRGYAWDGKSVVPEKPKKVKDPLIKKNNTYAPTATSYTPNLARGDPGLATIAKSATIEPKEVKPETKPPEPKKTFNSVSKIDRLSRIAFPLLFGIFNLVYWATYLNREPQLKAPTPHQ
T1 sequence (P63138 26-474, stated change not applied): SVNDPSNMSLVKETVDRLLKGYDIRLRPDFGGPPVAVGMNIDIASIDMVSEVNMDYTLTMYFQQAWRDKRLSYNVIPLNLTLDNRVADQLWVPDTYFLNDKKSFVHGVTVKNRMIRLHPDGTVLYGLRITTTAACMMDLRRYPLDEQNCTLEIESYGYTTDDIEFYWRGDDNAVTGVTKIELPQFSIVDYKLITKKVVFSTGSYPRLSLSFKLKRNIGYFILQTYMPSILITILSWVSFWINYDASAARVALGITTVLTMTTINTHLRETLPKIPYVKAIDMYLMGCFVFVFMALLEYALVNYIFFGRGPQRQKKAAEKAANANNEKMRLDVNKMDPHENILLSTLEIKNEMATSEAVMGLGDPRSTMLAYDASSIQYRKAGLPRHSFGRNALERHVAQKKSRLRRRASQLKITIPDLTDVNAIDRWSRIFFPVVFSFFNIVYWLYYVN
T1 sequence (P18508 with tags, fused parts or gaps INS375LLRMFSFK): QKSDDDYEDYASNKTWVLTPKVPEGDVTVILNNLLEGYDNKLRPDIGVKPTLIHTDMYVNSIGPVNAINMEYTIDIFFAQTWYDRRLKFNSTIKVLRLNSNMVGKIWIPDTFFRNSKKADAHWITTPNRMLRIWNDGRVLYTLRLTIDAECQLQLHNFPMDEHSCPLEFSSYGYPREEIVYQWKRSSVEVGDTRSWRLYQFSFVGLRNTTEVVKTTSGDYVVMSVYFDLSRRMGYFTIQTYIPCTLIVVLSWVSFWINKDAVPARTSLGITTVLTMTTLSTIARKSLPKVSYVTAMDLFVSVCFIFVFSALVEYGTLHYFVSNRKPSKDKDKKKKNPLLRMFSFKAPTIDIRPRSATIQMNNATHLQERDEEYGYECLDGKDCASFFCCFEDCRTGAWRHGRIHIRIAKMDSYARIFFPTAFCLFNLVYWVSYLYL
Method: Stage V-VI oocytes were harvested from sexually mature female Xenopus laevis (Xenopus One, Northland, Mich.) under 0.1% tricaine (3-aminobenzoic acid ethyl ester) anesthesia. Oocytes were defolliculated by shaking for 20 min at 37° C. in collagenase (2 mg/ml) dissolved in calcium-free solution containing (in mM): 96 NaCl, 2 KCl, 1 MgCl2, and 5 HEPES at pH 7.4. Capped mRNA, encoding rat GABAA receptor α1, β2 and γ2L subunits was transcribed in vitro using the mMESSAGE mMachine Kit (Ambion, Austin, Tex.) from linearized pBluescript vectors containing receptor coding regions. Subunit transcripts were injected in equal parts (20-40 ng total RNA) 8-24 hours following defolliculation. Oocytes were incubated up to 5 days at 18° C. in ND96 medium containing (in mM): 96 NaCl, 1 KCl, 1 MgCl2, 2 CaCl2 and 5 HEPES at pH 7.4, supplemented with pyruvate (5 mM), penicillin (100 U/ml), streptomycin (100 μg/ml) and gentamycin (50 μg/ml). The cDNAs for the rat GABAA-receptor subunits were originally provided by A. Tobin, University of California, Los Angels (α1), P. Malherbe, Hoffman-La Roche, Switzerland (β2), C. Fraser, National Institute on Alcohol Abuse and Alcoholism (γ2L).
Two-electrode voltage-clamp experiments were performed with a Warner OC725 amplifier 2-5 days following RNA injection. The extracellular recording solution was ND96 medium with no supplements. Intracellular recording pipettes were filled with 3 M KCl and had open tip resistances of ˜1 MΩ. Drugs were applied from a common tip via a gravity-driven multibarrel drug-delivery system. Steroids were simultaneously co-applied with GABA. Cells were clamped at −70 mV for all experiments, and peak current during 20 s drug applications was measured. Data acquisition and analysis were performed with pCLAMP software (Axon Instruments, California). Statistical differences were determined using a two-tailed Student's t-test.
The GABA concentration used for the control response was 2 μM. Each compound was evaluated on at least four different oocytes at the concentrations indicated, and the results reported are the ratio of the currents measured in the presence/absence of added compound. (G) represents direct current gated by 10 μM compound in the absence of GABA, and this current is reported as the ratio of compound only current/2 μM GABA current. Error limits are calculated as standard error of the means.

[2] = target: GABAA receptor ([35S]-TBPS binding site, rat brain cortical membranes); assay: Displacement of [35S]-TBPS binding, rat brain cortical membranes; conditions: 5 μM GABA, 2 nM [35S]-TBPS; ± standard error of the means
Method: Rat brain cortical membranes were prepared with minor modifications of the method previously reported. (Hawkinson, J. E., et al., Correlation of Neuroactive Steroid Modulation of [^35S]t-Butylbicyclophosophorothionate and [^3H]Flunitrazepam Binding and γ-Aminobutyric AcidA Receptor Function, Mol. Pharmacol., 1994, 46, 977-985). Briefly, frozen rat cerebral cortices (Pel-freez, Rogers, Ak.) were thawed and homogenized in 10 volumes of ice-cold 0.32 M sucrose using a glass/Teflon pestle. The homogenate was centrifuged at 1500×g for 10 min at 4° C. The resultant supernatant was centrifuged at 10,000×g for 30 min at 4° C. The pellet (P2) from this centrifugation was resuspended in 200 mM NaCl, 50 mM potassium phosphate buffer, pH 7.4, and centrifuged at 10,000×g for 20 min at 4° C. This washing procedure was done a total of three times, and then pellets were resuspended in buffer (˜4 mL/brain) using a glass/Teflon pestle. The membrane suspension was aliquoted, frozen in liquid nitrogen, and stored at −80° C. prior to use.
[^35S]-TBPS Binding assays were done according to the procedure described previously (Hawkinson, J. E., et al., Correlation of Neuroactive Steroid Modulation of [^35S]t-Butylbicyclophosophorothionate and [^3H]Flunitrazepam Binding and γ-Aminobutyric AcidA Receptor Function, Mol. Pharmacol., 1994, 46, 977-985) with modifications. Briefly, aliquots of membrane solution (0.5 mg/mL final protein concentration in assay) were incubated with 5 μM GABA, 2 nM [^35S]-TBPS (45-120 Ci/mmol), and 5 μL aliquots of steroid in DMSO solution (final assay concentrations ranged from 1 nM to 10 μM), and brought to a final volume of 1 mL with 200 mM NaCl, 50 mM potassium phosphate buffer, pH 7.4. […] Assay tubes were incubated for 2 hr at room temperature. A Brandel (Gaithersburg, Md.) cell harvester was used for filtration of the assay tubes through Whatman/GF/C glass filter paper. Filter paper was rinsed with 4 mL of ice-cold buffer three times. Radioactivity bound to the filters was read by liquid scintillation counter and data was fit using Sigma Plot version 3.0 to the Hill equation i. f=Rmax/{1+([conc]/IC50)^n}
Where Rmax is the maximal effect, [conc] is steroid concentration, IC50 is the half-maximal inhibitor concentration and n is the Hill coefficient. Each data point was determined in triplicate and 2-3 full concentration-response curves were generated for each steroid.

Xenopus laevis tadpoles = assay: Tadpole loss of righting (LRR) and swimming (LSR) reflexes; format: in vivo; conditions: 3 h equilibration at room temperature; for EC50: read-out: LSR EC50 (loss of swimming response)
Method: Tadpole LRR was measured as described previously. (See, Wittmer, L. L., et al., Enantioselectivity of steroid-induced γ-aminobutyric acidA receptor modulation and anesthesia, Mol. Phar., 1996, 50:1581-1586). Briefly, groups of 10 early prelimb-bud stage Xenopus laevis tadpoles (Nasco, Fort Atkinson, Wis.) were placed in 100 mL of oxygenated Ringer's stock solution containing various concentrations of compound. Compounds were added from a 10 mM DMSO stock (final concentration of DMSO in test solutions ≦0.1%). After equilibrating at room temperature for 3 h, tadpoles were evaluated using the LRR and LSR behavioral endpoints. LRR was defined as failure of the tadpole to right itself within 5 sec after being flipped by a smooth glass rod. LSR was defined as failure of the tadpole to swim when touched by a smooth glass rod. In general, the tadpoles regained their righting and swimming reflexes when placed in fresh oxygenated Ringer's solution. Control beakers containing up to 0.6% DMSO produced no LRR or LSR in tadpoles.
Tadpole LRR and LSR concentration-response curves were fit using Sigma Plot version 3.0 to the Hill equation f=Rmax/{1+([conc]/EC50)^n}
where Rmax is the maximum effect, [conc] is the steroid concentration, EC50 is the half-maximal effective concentration, and n is the Hill coefficient.

Row | SMILES | Oocyte electrophysiology, ratio of currents in presence/absence of compound, 0.1 μM [1] | Oocyte electrophysiology, ratio of currents in presence/absence of compound, 1 μM [1] | Oocyte electrophysiology, ratio of currents in presence/absence of compound, 10 μM [1] | Gating (10 μM), ratio of compound only current/2 μM GABA current [1] | IC50 [2] [nM] | LRR ED50 (loss of righting response) (Xenopus laevis tadpoles) [nM] | EC50 (Xenopus laevis tadpoles; Xenopus laevis, 3 h) [nM] | melting point [°C] | LSR EC50 (loss of swimming response) (Xenopus laevis tadpoles) | EC50 (Xenopus laevis tadpoles) [nM]
1 | CC12CCC(O)CC1CCC1C2CCC23C(=O)CCCC2CCC13 (stereo not drawn) [Compound 5b, (3α,5β)-3-Hydroxy-13,24-cyclo-18,21-dinorcholan-24-one] | 1.26 ± 0.05 | 3.45 ± 0.29 | 10.42 ± 1.65 | 0.04 ± 0.02 | 329 ± 35 | 400 ± 120 | 890 | 177 to 178 | – | –
2 | CC12CCC(O)CC1CCC1C2CCC23CC=CC(=O)C2CCC13 (stereo not drawn) [Compound 11a, (3α,5α)-3-Hydroxy-13,24-cyclo-18,21-dinorchol-22-en-20-one] | 1.49 ± 0.20 | 5.87 ± 1.52 | 9.07 ± 1.86 | 0.72 ± 0.03 | 373 ± 20 | 3380 ± 670 | – | 230 to 232 | None @ 10 | –
3 | CC12CCC(O)CC1CCC1C2CCC23CC=CC(=O)C2CCC13 (stereo not drawn) [Compound 11b, (3α, 5β)-3-Hydroxy-13,24-cyclo-18,21-dinorchol-22-en-20-one] | 1.07 ± 0.17 | 1.17 ± 0.11 | 2.34 ± 0.37 | 0.11 ± 0.04 | 1570 | 2560 ± 1390 | 8950 ± 10 | 253 to 254 | – | –
4 | CC12CCC(O)CC1CCC1C2CCC23CCC=CC2CCC13 (stereo not drawn) [Compound 13a, (3α,5α)-13,24-Cyclo-18,21-dinorchol-20(22)-en-3-ol] | 1.53 ± 0.45 | 2.12 ± 0.40 | 2.68 ± 0.42 | −0.32 ± 0.15 | 569 ± 28 | >10000 | – | 169 to 170 | None @ 10 | –
5 | CC12CCC(O)CC1CCC1C2CCC23CCC=CC2CCC13 (stereo not drawn) [Compound 13b, (3α,5β)-13,24-Cyclo-18,21-dinorchol-20(22)-en-3-ol] | 1.44 ± 0.17 | 2.09 ± 0.35 | 3.48 ± 1.01 | −0.05 ± 0.09 | 484 ± 103 | 1280 ± 1800 | > 10000 | 168 to 169 | – | –
6 | CC12CCC(O)CC1CCC1C2CCC23CC4OC4C(=O)C2CCC13 [Compound 19a, (3α,5α,22S,23S)-22,23-Epoxy-3-hydroxy-13,24-cyclo-18,21-dinorcholan-20-one] | 1.47 ± 0.17 | 1.92 ± 0.23 | 8.90 ± 2.10 | 0.23 ± 0.24 | 370 ± 42 | 1750 ± 460 | 10000 | 238 to 240 | – | –
7 | CC12CCC(O)CC1CCC1C2CCC23CC4OC4C(=O)C2CCC13 [Compound 19b, (3α,5α,22R,23R)-22,23-Epoxy-3-hydroxy-13,24-cyclo-18,21-dinorcholan-20-one] | 1.13 ± 0.02 | 2.11 ± 0.26 | 5.47 ± 0.62 | 0.21 ± 0.02 | 313 ± 18 | 960 ± 290 | – | 194 to 195 | – | 10000
8 | CC12CCC(O)CC1CCC1C2CCC23CC(=O)C=CC2CCC13 (stereo not drawn) [Compound 21c, (3α,5α)-3-Hydroxy-13,24-cyclo-18,21-dinorchol-20(22)-en-23-one] | 1.59 ± 0.14 | 5.53 ± 0.66 | 16.58 ± 2.45 | 0.35 ± 0.12 | 243 ± 11 | 1280 ± 380 | – | 209 to 210 | – | 10000
9 | CC12CCC(O)CC1CCC1C2CCC23CC(=O)C=CC2CCC13 (stereo not drawn) [Compound 22c, (3α,5β)-3-Hydroxy-13,24-cyclo-18,21-dinorchol-20(22)-en-23-one] | 1.07 ± 0.10 | 1.83 ± 0.25 | 4.50 ± 0.46 | −0.02 ± 0.01 | 268 ± 43 | 1050 ± 0 | – | 209 to 211 | – | 2720 ± 10
